Values quoted from earlier work in patent US7119205B2, “Thienopyridones as AMPK activators for the treatment of diabetes and obesity” (Abbott Laboratories, priority 2003, dated 2006).

Test system: ob/ob and db/db mice
Details: 8 day administration

NC(=O)c1ncn([C@@H]2O[C@H](CO)[C@@H](O)[C@H]2O)c1N [AICAR]
reduction of blood glucose: 35%
